# In patent publication US8859578B2, “Natural product derivatives with antiprotozoal activity” (Radix Pharmaceuticals, Inc., priority 2012, dated 2014):
# Several values for one entry are separate records, joined by “and”; a condition that tells them apart may be missing. Equal entries are not always repeated. Where two headings read alike, the source gives them in different places.
# Assays:
# P. falciparum K1 = test: In vitro blood stage antimalarial activity, [3H]hypoxanthine uptake; assay type: cell-based; details: Plasmodium falciparum
# Protocol: (§1) In Vitro Blood Stage Antimalarial Efficacy Evaluation. New compounds were tested against a panel of strains of P. falciparum.
# (§2) Test compounds were initially dissolved in DMSO and diluted 400 fold in RPMI 1640 culture medium supplemented with 25 mM Hepes, 32 mM NaHCO3 and 10% Albumax I (Gibco, NY). These solutions were subsequently serially diluted two-fold with a Beckman Biomek® 1000 Robot (Fullerton, Calif.) over 11 different concentrations. The parasites were exposed to serial dilutions of each compound for 48 hrs and incubated at 37° C. with 5% O2, 5% CO2 and 90% N2 prior to the addition of [^3H]hypoxanthine. After a further incubation of 18 hrs, parasite DNA was harvested from each microtiter well using Packard Filtermate™ 196 Harvester (Meriden, Conn.) onto glass filters. Uptake of [^3H]hypoxanthine was measured with a Packard TopCount Liquid Scintillation Counter (Packard Instrument Co.).
# Plasmodium berghei = test: Oral prophylactic test in mice; assay type: in vivo
# [1] = system: Plasmodium cynomolgi sporozoite; test: Causal prophylactic activity in P. cynomolgi sporozoite-challenged Rhesus monkeys; assay type: in vivo; details: PO 15 mg/kg, 1 daily for 3 days
# Excerpt: Two monkeys were used in each test group. The control animals developed parasitemia in about 10 days after inoculation of about 1×10^6 P. cynomolgi sporozoites harvested from Anopheles dirus. All the monkeys received three treatments, once a day for three consecutive days beginning a day before (−1, 0, +1) the sporozoites challenge. The control monkeys (group 1) received HECT and the experimental animals received testing compound by using 8 Fr., 15-in. long nasogastric tubes.
# P. falciparum DD2 = test: In vitro blood stage antimalarial activity, [3H]hypoxanthine uptake; assay type: cell-based; details: Plasmodium falciparum
# Protocol: as §1, §2
# P. falciparum 3D7 = test: as above; assay type: cell-based; details: Plasmodium falciparum
# Protocol: as §1, §2
# P. falciparum TM6 = test: as above; assay type: cell-based; details: Plasmodium falciparum
# Protocol: as §1, §2
# P. falciparum TM4 = test: as above; assay type: cell-based; details: Plasmodium falciparum
# Protocol: as §1, §2
# P. falciparum PH3 = test: as above; assay type: cell-based; details: Plasmodium falciparum
# Protocol: as §1, §2
# Plasmodium cynomolgi = test: Radical curative activity in relapsed Rhesus monkeys; assay type: in vivo; details: for Monkeys cured: co-administered with chloroquine, two monkeys; for Days post-treatment (to relapse): with CQ 10 mg/kg/day for 7 days, one value per monkey
# Protocol: Compounds with antihypnozoite activity will delay the relapse or radically cure the infection. […] Relapse was expected in the control group. Relapse in the treated group indicates failure of the test compounds. […] Relapse in experimental animals and the second relapse of the control monkeys were treated with the standard 7 day oral CQ and primaquine (1.78 mg base/kg).
# P. falciparum V1S = test: microbe, parasite or virus in culture; assay type: cell-based; details: Plasmodium falciparum
# Protocol: as §1, §2
# rodent P. berghei = test: Antimalarial potency (MCD, MCureD) and therapeutic indices, rodent P. berghei; assay type: in vivo
# Protocol: Antimalarial potency was measured by determination of the MCD (minimum clearance dose), a commonly used efficacy measurement. The primary therapeutic indices, which were obtained by using the MCDs as the effective parameters, were calculated. A secondary therapeutic indices measure of antimalarial potency was determined by use of the dose for the MCureD (minimum curative dose).
# [2] = system: Liver Stage of P. yoelii yoelii; test: In vitro liver-stage antimalarial efficacy; assay type: cell-based; details: Plasmodium yoelii
# Protocol: In Vitro Liver-Stage Antimalarial Efficacy Evaluation. Any new desirable antimalarial drug should be broad spectrum: it should be active against both the blood stage and the liver stage of the parasite. New compounds were assessed on the Plasmodium yoelii liver stage in vitro. The liver stage of P. yoelii is a parasite of rodent extensively used as an experimental model for studying the initial phase of the malaria infection.
# [3] = system: chloroquine-resistant FVO strain of P. falciparum; test: Efficacy against blood stages of P. falciparum in Aotus monkeys; assay type: in vivo; details: oral for 3 days
# Excerpt: In Vivo Efficacy Studies in Aotus Monkey Model. The monkeys selected for the study had active infections of the chloroquine-resistant FVO strain of P. falciparum.
# Malaria-naive Panamanian owl monkeys (Aotus lemurinus lemurinus) were used as hosts for chioroquine-resistant P. falciparum. The chloroquine-resistant Vietnam Smith strain was used in the initial experiments. In subsequent studies, a recrudescent isolate from a Vietnam Smith strain infected Aotus monkey treated with chloroquine was used.
# The inoculum size produced a parasitemia of at least 5×10^3/mm^3 by the fifth day postinoculation, at which time treatment was begun. Stock solutions of water-soluble drug were prepared at appropriate concentrations and maintained at 4° C. during the course of treatment. A suspension of water-insoluble drugs was prepared in 0.3% methylcellulose just prior to use. All drugs were administered by gastric intubation in a volume of 7.0 ml, followed by a 7.0-mi rinse with either water or 0.3% methylcellulose. Test drug was given orally for either three or seven consecutive days. […]
# Giemsa-stained blood smears were prepared from all animals and examined daily beginning the day after inoculation until parasitemia was cleared and for at least seven days thereafter. […] Ten or less parasites on a thick blood film were recorded as <10. Parasitemia was enumerated and expressed as number of parasites/mm^3. […]
# in vivo = details: Sprague-Dawley, rat, po
smiles,measurement,setting,value
CCN(CC)Cc1cc(Nc2ccnc3cc(Cl)ccc23)ccc1O [Amodiaquine],IC50,P. falciparum K1; read-out: IC50,21.2 ± 2.1 nM
COc1cc2c(c3cc4c(nc13)C=C[C@@]1([C@H]3CC([C@H](O)[C@@H](N)C(C)C)OCO3)C=CCOC41)[C@@H]1OCOC[C@]1(C)N2 (stereo partly drawn) [Formula A],Mice infected and treated/Mice surviving day 60,"Plasmodium berghei; day of treatment 1, dose 0.5 mg/kg oral",5/5
same,Mice infected and treated/Mice surviving day 60,"Plasmodium berghei; day of treatment 1, dose 2 mg/kg oral",5/5
same,Mice infected and treated/Mice surviving day 60,"Plasmodium berghei; day of treatment 1, dose 8 mg/kg oral",5/5
same,Mice infected and treated/Mice surviving day 60,"Plasmodium berghei; day of treatment 1, dose 32 mg/kg oral",5/5
same,Mice infected and treated/Mice surviving day 60,"Plasmodium berghei; day of treatment 2, dose 0.5 mg/kg oral",5/5
same,Mice infected and treated/Mice surviving day 60,"Plasmodium berghei; day of treatment 2, dose 2 mg/kg oral",5/5
same,Mice infected and treated/Mice surviving day 60,"Plasmodium berghei; day of treatment 2, dose 8 mg/kg oral",5/5
same,Mice infected and treated/Mice surviving day 60,"Plasmodium berghei; day of treatment 2, dose 32 mg/kg oral",5/5
same,Mice infected and treated/Mice surviving day 60,"Plasmodium berghei; day of treatment −1, dose 0.5 mg/kg oral",5/5
same,Mice infected and treated/Mice surviving day 60,"Plasmodium berghei; day of treatment −1, dose 2 mg/kg oral",5/5
same,Mice infected and treated/Mice surviving day 60,"Plasmodium berghei; day of treatment −1, dose 8 mg/kg oral",5/5
same,Mice infected and treated/Mice surviving day 60,"Plasmodium berghei; day of treatment −1, dose 32 mg/kg oral",5/5
same,Mice infected and treated/Mice surviving day 60,"Plasmodium berghei; day of treatment −2, dose 0.5 mg/kg oral",5/5
same,Mice infected and treated/Mice surviving day 60,"Plasmodium berghei; day of treatment −2, dose 2 mg/kg oral",5/5
same,Mice infected and treated/Mice surviving day 60,"Plasmodium berghei; day of treatment −2, dose 8 mg/kg oral",5/5
same,Mice infected and treated/Mice surviving day 60,"Plasmodium berghei; day of treatment −2, dose 32 mg/kg oral",5/5
same,Protection from malaria (oral prophylactic activity),"Plasmodium berghei; mice, single dose of 0.5 mg/kg within 2 days pre-infection through 2 days post-infection",completely protected from malaria
same,Delay of patency compared with untreated control monkeys,[1],delayed patency of treated monkeys more than a month
same,Parasite patency (days postinoculation),"[1]; one value per monkey, control 8 days, 15 mg/kg",42 days and 60 days
same,IC50,P. falciparum DD2; read-out: IC50,0.17 ± 0.04 nM
same,IC50,P. falciparum 3D7; read-out: IC50,0.12 ± 0.03 nM
same,IC50,P. falciparum K1; read-out: IC50,0.35 ± 0.06 nM
same,IC50,P. falciparum TM6; read-out: IC50,0.27 ± 0.05 nM
same,IC50,P. falciparum TM4; read-out: IC50,0.41 ± 0.09 nM
same,IC50,P. falciparum PH3; read-out: IC50,0.27 ± 0.05 nM
same,Monkeys cured,Plasmodium cynomolgi; 15 mg/kg/day level,one out of two monkeys
same,Monkeys cured,Plasmodium cynomolgi; 30 mg/kg/day level,both monkeys
same,Days post-treatment (to relapse),"Plasmodium cynomolgi; Rhesus monkeys, PO 15 mg/kg 1 daily for 3 days",44 days and no relapse
same,Days post-treatment (to relapse),"Plasmodium cynomolgi; Rhesus monkeys, PO 30 mg/kg 1 daily for 3 days",no relapse
same,IC50,P. falciparum V1S,0.21 ± 0.03 nM
same,MCureD (minimum curative dose),rodent P. berghei; administered orally,12.6 mg/kg
same,IC50,[2],6.2 nM
same,dosage needed to cure 50% of animals,[3],2 mg/kg/day
same,dosage needed to cure 100% of animals,[3],8 mg/kg/day
same,NOAEL at 2 weeks,in vivo,> 100 mg/kg/day
same,MTD at 2 weeks,in vivo; MTD (maximum tolerated dose),> 500 mg/kg
C[C@H]1[C@H](OC(=O)CCC(=O)O)O[C@@H]2O[C@@]3(C)CC[C@H]4[C@H](C)CC[C@@H]1[C@@]24OO3 [Artesunate],MCureD (minimum curative dose),rodent P. berghei; route of administration iv,25.4 mg/kg
"COc1cc(NC(C)CCCN)c2ncccc2c1 (stereo not drawn) [Primaquine, reference compound]",IC50,[2],76 nM
"CCN(CC)CCCC(C)Nc1ccnc2cc(Cl)ccc12 (stereo not drawn) [Chloroquine, reference compound]",IC50,P. falciparum DD2,45.8 ± 10.2 nM
same,IC50,P. falciparum 3D7,9.7 ± 3.4 nM
same,IC50,P. falciparum K1,166 ± 19.3 nM
same,IC50,P. falciparum TM6,96.4 ± 6.9 nM
same,IC50,P. falciparum TM4,115 ± 12.7 nM
same,IC50,P. falciparum PH3,33.4 ± 9.1 nM
same,Results (radical curative test),"Plasmodium cynomolgi; Rhesus monkeys, chloroquine alone, 10 mg/kg/day for 7 days",relapse
same,IC50,P. falciparum V1S,152 ± 14.1 nM
same,MCureD (minimum curative dose),rodent P. berghei; administered orally,None
